According to ChEMBL document CHEMBL3885881, “DrugMatrix”:

Organism: Rattus norvegicus
Assay: DrugMatrix - Regimen: Daily Repeat
Assay type: toxicity, organism-based, Sprague-Dawley
Set-up: regimen Daily Repeat, gender Male, age 6-8 weeks
Conditions: in vivo, po, 600 mg/kg, route oral GAVAGE, dose level High
[1] = 72 h, tissue Plasma, time 3 day, vehicle 100 % WATER
[2] = 120 h, tissue Blood, time 5 day, […]
[3] = 120 h, tissue Blood, time 5 day, vehicle 100 % WATER
[4] = 120 h, tissue Plasma, time 5 day, […]
[5] = 120 h, tissue Plasma, time 5 day, vehicle 100 % WATER

## ClC(Cl)Cl [CHLOROFORM]
[1]
  SODIUM: 144.7 MEQ/L
  TOTAL BILIRUBIN: 0.13 mg/dL
  TOTAL PROTEIN: 6.6 G/DL
  URIC ACID: 0.7 mg/dL
[2]
  ABSOLUTE LYMPHOCYTE: 11359.33 CELLS/uL
  ABSOLUTE MONOCYTE: 227.33 CELLS/uL
  ABSOLUTE SEGMENTED NEUTROPHIL: 6880 CELLS/uL
  ERYTHROCYTE COUNT: 7.17 x10E6/uL
  HEMATOCRIT: 42.1%
  HEMOGLOBIN: 15.6 G/DL
  LEUKOCYTE COUNT: 18.47 x10E3/uL
  LYMPHOCYTE: 73%
  MEAN CORPUSCULAR HEMOGLOBIN: 21.73 pg
  MEAN CORPUSCULAR HEMOGLOBIN CONCENTRATION: 37.07 G/DL
  MEAN CORPUSCULAR VOLUME: 58.7 fL
  MONOCYTE: 2%
  NEUTROPHIL: 25%
  PLATELET COUNT: 1040.67 x10E3/uL
[3]
  ABSOLUTE BASOPHIL: 0 CELLS/uL
  ABSOLUTE EOSINOPHIL: 0 CELLS/uL
  ABSOLUTE LYMPHOCYTE: 9175.5 CELLS/uL
  ABSOLUTE MONOCYTE: 105.5 CELLS/uL
  ABSOLUTE SEGMENTED NEUTROPHIL: 1269 CELLS/uL
  BASOPHIL: 0%
  EOSINOPHIL: 0%
  ERYTHROCYTE COUNT: 6.48 x10E6/uL
  HEMATOCRIT: 39.2%
  HEMOGLOBIN: 15.15 G/DL
  LEUKOCYTE COUNT: 10.55 x10E3/uL
  LYMPHOCYTE: 88%
  MEAN CORPUSCULAR HEMOGLOBIN: 23.4 pg
  MEAN CORPUSCULAR HEMOGLOBIN CONCENTRATION: 38.7 G/DL
  MEAN CORPUSCULAR VOLUME: 60.5 fL
  MONOCYTE: 1%
  NEUTROPHIL: 11%
  NUCLEATED RED BLOOD CELLS: 0 /100WBC
  PLATELET COUNT: 959 x10E3/uL
[4]
  ALANINE AMINOTRANSFERASE: 212 u/L
  ALBUMIN: 4.1 G/DL
  ALKALINE PHOSPHATASE: 626 u/L
  ASPARTATE AMINOTRANSFERASE: 299.67 u/L
  BLOOD UREA NITROGEN: 49.67 mg/dL
  CARBON DIOXIDE: 19.67 mmol/L
  CHLORIDE: 110.67 MEQ/L
  CHOLESTEROL: 110.33 mg/dL
  CREATINE PHOSPHOKINASE: 744 u/L
  CREATININE: 0.83 mg/dL
  GLUCOSE: 119.33 mg/dL
  LACTATE DEHYDROGENASE: 376 u/L
  PHOSPHORUS: 13.27 mg/dL
  POTASSIUM: 9.12 MEQ/L
  SODIUM: 144.83 MEQ/L
  TOTAL BILIRUBIN: 0.63 mg/dL
  TOTAL PROTEIN: 5.77 G/DL
  URIC ACID: 1.3 mg/dL
[5]
  ALANINE AMINOTRANSFERASE: 46.5 u/L
  ALBUMIN: 4.05 G/DL
  ALKALINE PHOSPHATASE: 305.5 u/L
  ASPARTATE AMINOTRANSFERASE: 71 u/L
  BLOOD UREA NITROGEN: 15 mg/dL
  CARBON DIOXIDE: 29 mmol/L
  CHLORIDE: 102.5 MEQ/L
  CHOLESTEROL: 69 mg/dL
  CREATINE PHOSPHOKINASE: 475.5 u/L
  CREATININE: 0.21 mg/dL
  GLUCOSE: 150.5 mg/dL
  LACTATE DEHYDROGENASE: 93 u/L
  LIPASE: 11 u/L
  PHOSPHORUS: 11.45 mg/dL
  POTASSIUM: 5.24 MEQ/L
  SODIUM: 146.9 MEQ/L
  TOTAL BILIRUBIN: 0.1 mg/dL
  TOTAL PROTEIN: 6.05 G/DL
  URIC ACID: 0.95 mg/dL
